Reference: US12240904B2, “Use of anti-PD-1 antibody in combination with famitinib in preparation of drug for treating tumors” (Jiangsu Hengrui Medicine Co., Ltd., priority 2018, dated 2025)
Like-named read-outs stand apart in the source and are kept apart here.

Experiments:
kidney cancer = settings: Compound B 25 mg, q.d., alone; cited from earlier work
[1] = clinical study, pharmacokinetics of Compound B; assay type: in vivo, human; settings: for AUC: human, blood, oral
From the text: In the present disclosure, “AUC” refers to the area surrounded by the pharmacokinetic blood drug concentration curve versus time axis. This parameter is an important indicator for evaluating the degree of drug absorption, reflecting the exposure profiles of the drug in vivo. Since the blood drug concentration in pharmacokinetic studies can only be observed up to a certain time point t, AUC can be expressed in the following two means: AUC (0-t) and AUC (0-∞), wherein AUC (0-t) is derived from the trapezoidal area, and AUC (0-∞) is calculated by the formula: AUC (0-∞)=AUC (0-t)+end point concentration/end point elimination rate. The AUC mentioned in the present application refers to the averaged AUC0-24 of the patient reaching a steady state after a single administration or multiple administrations, preferably the averaged AUC0-24 of the patient reaching a steady state after multiple administrations (i.e. AUCss).
Compound A: intravenous injection, 200 mg, once every 3 weeks, 1 cycle every 3 weeks; Compound B: 20 mg or 15 mg, oral administration, once a day.
Among the 12 subjects who participated in the pharmacokinetic study, PK blood was collected from 9 subjects.

Mer = molecular target: T1, Mer (Homo sapiens, UniProt Q12866); experiment: IC50Profiler in vitro kinase activity; assay type: biochemical; settings: ATP 10 μM
T1 construct: purchased
T1 sequence (Q12866 21-999): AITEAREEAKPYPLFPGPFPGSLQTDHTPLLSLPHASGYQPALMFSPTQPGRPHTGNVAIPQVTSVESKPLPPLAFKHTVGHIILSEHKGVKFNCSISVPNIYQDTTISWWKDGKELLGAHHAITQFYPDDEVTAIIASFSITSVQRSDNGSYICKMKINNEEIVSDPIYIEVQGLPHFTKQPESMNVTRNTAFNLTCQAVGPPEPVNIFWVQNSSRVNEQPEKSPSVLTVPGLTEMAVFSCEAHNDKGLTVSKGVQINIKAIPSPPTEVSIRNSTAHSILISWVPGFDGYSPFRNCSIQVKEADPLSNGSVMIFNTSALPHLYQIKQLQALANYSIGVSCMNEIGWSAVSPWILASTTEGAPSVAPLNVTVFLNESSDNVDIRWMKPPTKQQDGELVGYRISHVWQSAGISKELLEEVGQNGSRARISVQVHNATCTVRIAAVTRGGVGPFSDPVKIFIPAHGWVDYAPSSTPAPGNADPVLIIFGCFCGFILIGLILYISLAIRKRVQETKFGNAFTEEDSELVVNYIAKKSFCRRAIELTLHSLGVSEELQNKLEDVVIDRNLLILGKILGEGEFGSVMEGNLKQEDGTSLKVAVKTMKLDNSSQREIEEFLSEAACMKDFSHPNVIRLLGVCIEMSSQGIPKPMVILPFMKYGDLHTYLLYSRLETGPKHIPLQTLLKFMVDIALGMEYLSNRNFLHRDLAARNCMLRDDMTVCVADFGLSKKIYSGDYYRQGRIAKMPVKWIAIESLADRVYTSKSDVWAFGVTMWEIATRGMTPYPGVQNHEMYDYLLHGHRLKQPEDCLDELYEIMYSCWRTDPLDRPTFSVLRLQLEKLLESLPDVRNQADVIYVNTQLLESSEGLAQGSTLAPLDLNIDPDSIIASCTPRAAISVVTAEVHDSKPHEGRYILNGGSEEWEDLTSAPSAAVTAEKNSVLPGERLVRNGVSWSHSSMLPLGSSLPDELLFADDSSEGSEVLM
Method: (§1) (1) Experimental Procedures for IC50Profiler™
(§2) Appropriate amounts of kinase and peptide substrates were separately mixed with different concentrations of famitinib malate (1 nM, 3 nM, 10 nM, 30 nM, 100 nM, 300 nM, 1 μM, 3 μM, 10 μM) and incubated for 60 min at room temperature. Magnesium acetate and [gamma-33P]-ATP were added to initiate the kinase-catalyzed reaction, and the reaction was carried out at room temperature for 40 minutes. After the reaction was finished, 3% phosphoric acid solution was added to terminate the reaction. 10 μL of the reaction mixture was taken and added onto a P30 filter membrane to be filtered. The membrane was washed with 75 mM phosphate buffer for 3 times and washed once with methanol to remove free [gamma-33P]-ATP. The protein was fixed, and the membrane was dried. The liquid scintillation analyzer was used to determine the amount of peptide substrate by counting the amount of 33P.

TYRO3 (Rse) = molecular target: T2, TYRO3 (Rse) (Homo sapiens, UniProt Q06418); experiment: IC50Profiler in vitro kinase activity; assay type: biochemical; settings: ATP 10 μM
T2 construct: purchased
T2 sequence (Q06418 41-890): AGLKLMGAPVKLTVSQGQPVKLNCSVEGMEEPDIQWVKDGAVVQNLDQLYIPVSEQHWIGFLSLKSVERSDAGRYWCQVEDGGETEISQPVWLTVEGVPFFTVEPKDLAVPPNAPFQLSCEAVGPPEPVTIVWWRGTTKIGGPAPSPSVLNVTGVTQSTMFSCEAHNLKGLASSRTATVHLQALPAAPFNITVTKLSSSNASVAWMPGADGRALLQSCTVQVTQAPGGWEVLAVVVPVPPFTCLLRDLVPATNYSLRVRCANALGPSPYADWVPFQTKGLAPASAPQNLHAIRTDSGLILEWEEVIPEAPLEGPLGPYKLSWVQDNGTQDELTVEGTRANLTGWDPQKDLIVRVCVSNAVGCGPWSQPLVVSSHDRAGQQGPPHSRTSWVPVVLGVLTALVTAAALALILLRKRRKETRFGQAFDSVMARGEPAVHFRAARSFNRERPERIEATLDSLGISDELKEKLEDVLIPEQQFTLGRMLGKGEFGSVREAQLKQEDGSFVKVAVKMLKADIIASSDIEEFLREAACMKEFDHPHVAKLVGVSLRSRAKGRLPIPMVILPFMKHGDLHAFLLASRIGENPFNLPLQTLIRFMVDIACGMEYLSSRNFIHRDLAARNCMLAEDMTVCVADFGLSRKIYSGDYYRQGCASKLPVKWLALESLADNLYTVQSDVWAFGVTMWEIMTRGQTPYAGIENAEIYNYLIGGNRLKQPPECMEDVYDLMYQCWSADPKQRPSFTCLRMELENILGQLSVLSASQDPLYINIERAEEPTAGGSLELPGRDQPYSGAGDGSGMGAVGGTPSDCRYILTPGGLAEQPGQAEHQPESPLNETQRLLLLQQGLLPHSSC
Method: as §1, §2

Axl = molecular target: T3, Axl (Homo sapiens, UniProt P30530); experiment: IC50Profiler in vitro kinase activity; assay type: biochemical; settings: ATP 10 μM
T3 construct: purchased
T3 sequence (P30530 26-894): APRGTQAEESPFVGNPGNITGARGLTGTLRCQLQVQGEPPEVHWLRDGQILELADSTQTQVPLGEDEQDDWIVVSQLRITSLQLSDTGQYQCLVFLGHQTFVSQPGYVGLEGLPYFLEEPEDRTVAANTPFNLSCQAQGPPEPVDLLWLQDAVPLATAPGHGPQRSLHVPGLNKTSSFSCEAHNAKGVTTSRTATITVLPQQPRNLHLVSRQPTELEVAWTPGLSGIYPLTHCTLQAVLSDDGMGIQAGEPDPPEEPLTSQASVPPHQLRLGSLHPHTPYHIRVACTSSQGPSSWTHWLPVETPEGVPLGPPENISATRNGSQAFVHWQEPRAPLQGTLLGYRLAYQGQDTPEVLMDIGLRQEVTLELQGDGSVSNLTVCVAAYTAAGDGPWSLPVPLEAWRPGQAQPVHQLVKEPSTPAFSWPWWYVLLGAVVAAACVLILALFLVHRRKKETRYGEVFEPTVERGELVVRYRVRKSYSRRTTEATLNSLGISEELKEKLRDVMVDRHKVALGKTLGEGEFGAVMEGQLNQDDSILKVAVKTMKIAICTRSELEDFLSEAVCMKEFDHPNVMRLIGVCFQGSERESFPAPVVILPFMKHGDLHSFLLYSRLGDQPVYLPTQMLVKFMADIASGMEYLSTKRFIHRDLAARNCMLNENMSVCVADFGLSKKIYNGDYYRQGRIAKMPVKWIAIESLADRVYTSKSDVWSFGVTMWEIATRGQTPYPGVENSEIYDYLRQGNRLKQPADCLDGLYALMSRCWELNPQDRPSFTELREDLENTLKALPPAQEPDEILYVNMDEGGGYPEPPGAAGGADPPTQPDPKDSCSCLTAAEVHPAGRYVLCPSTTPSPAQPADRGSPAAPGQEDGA
Method: as §1, §2

[2] = system: advanced/metastatic colorectal cancer; settings: 25 mg, once a day, cited from earlier work
[3] = administration alone, 20 mg (n = 8)
[4] = co-administration with Compound A, 20 mg (n = 9)

**Q.** For `CCN(CC)CCN1CCc2[nH]c(/C=C3\C(=O)Nc4ccc(F)cc43)c(C)c2C1=O` [Compound B, famitinib malate], which ORR (kidney cancer) is on record?
**A.** The ORR was 36%.

**Q.** And the “Css, max, Geomean (Geometric % CV)” value [1, 3]?
**A.** The value was 59.9 (44.4) ng/mL.

**Q.** And the “Css, max, Mean ± SD” value [1, 3]?
**A.** The value was 64.3 ± 23.8 ng/mL.

**Q.** And the “Css, min, Geomean (Geometric CV %)” value [1, 3]?
**A.** Its value is 29.8 (56.6) ng/mL.

**Q.** And the “Css, min, Mean ± SD” value [1, 3]?
**A.** The value was 33.2 ± 14.6 ng/mL.

**Q.** What about the “Tss, max, Median (Min, Max)” value [1, 3] of the same compound?
**A.** Its value is 6 (2, 8) h.

**Q.** And the “exposure amount of Compound B compared to administration alone” value ([1]; co-administrated with Compound A)?
**A.** The value was “increased”.

**Q.** What about the “Css, max, Geomean (Geometric % CV)” value [1, 4] of the same compound?
**A.** Its value is 71.6 (24.3) ng/mL.

**Q.** What about the “Css, max, Mean ± SD” value [1, 4] of the same compound?
**A.** Its value is 73.4 ± 16.8 ng/mL.

**Q.** And the “Css, min, Geomean (Geometric CV %)” value [1, 4]?
**A.** Its value is 36.6 (28.8) ng/mL.

**Q.** And the “Css, min, Mean ± SD” value [1, 4]?
**A.** Its value is 38.0 ± 11.0 ng/mL.

**Q.** What about the “Tss, max, Median (Min, Max)” value [1, 4] of the same compound?
**A.** The value was 6 (4, 10) h.

**Q.** What about the AUC ([1]; 20 mg, administration alone, 20 mg (n = 8), read-out: AUCss, Geomean (Geometric % CV)) of the same compound?
**A.** Its AUC is 1090 ng·h/mL.

**Q.** And the AUC ([1]; 20 mg, administration alone, 20 mg (n = 8), read-out: AUCss, Mean ± SD)?
**A.** The AUC was 1180 ± 465 ng·h/mL.

**Q.** What about the AUC ([1]; co-administration with Compound A, 20 mg (n = 9), read-out: AUCss, Geomean (Geometric % CV)) of the same compound?
**A.** The AUC was 1330 ng·h/mL.

**Q.** What about the AUC ([1]; co-administration with Compound A, 20 mg (n = 9), read-out: AUCss, Mean ± SD) of the same compound?
**A.** Its AUC is 1360 ± 300 ng·h/mL.

**Q.** What about the IC50 (Mer) of the same compound?
**A.** Its IC50 is 4.35 nM.

**Q.** What about the IC50 (TYRO3 (Rse)) of the same compound?
**A.** The IC50 was 326 nM.

**Q.** What about the IC50 (Axl) of the same compound?
**A.** Its IC50 is 36.8 nM.

**Q.** For `CCN(CC)CCN1CCc2[nH]c(/C=C3\C(=O)Nc4ccc(F)cc43)c(C)c2C1=O` [famitinib], which “improvement of progression-free survival (PFS) compared to the placebo group” value ([2]; period of 42 days) is on record?
**A.** Its value is 1.3 months.

**Q.** What about the “HR (PFS vs placebo)” value [2] of the same compound?
**A.** Its value is 0.596.

**Q.** And the adverse events [2]?
**A.** Its adverse events is “adverse events are under control”.

**Q.** And the “disease control rate (DCR)” value [2]?
**A.** Its value is 59.8%.

**Q.** What about the “median survival (mOS)” value [2] of the same compound?
**A.** The value was 7.5 months.

**Q.** And the “objective remission rate (ORR)” value [2]?
**A.** The value was 2.2%.
